# Measured values as given in US8829007B2 (priority 2009, dated 2014).
# pEC50, pIC50: −log10 of the molar value. Where a name gives a salt, the structure may show the parent alone. Read-outs that look alike come from different tables or passages of the source.
# Tests used:
# [1] = tested on: influenza A virus (A/PR/8/34); test: microbe, parasite or virus in culture; assay type: cell-based
# [2] = tested on: A/PR/8/34 influenza virus; test: microbe, parasite or virus in culture; assay type: cell-based
# influenza [3] = test: In vivo treatment study (FIG. 2), survival of infected mice; parameters: species or system Balb/c mice; details: 200 mg/kg oral gavage from 24 hours post infection, twice daily for 10 days, survival monitored 21 days, P<0.0001 vs vehicle
# influenza [4] = test: Influenza Therapeutic Mouse Model (Table 6); assay type: in vivo, mice; details: dosing @ 48 hours post infection with 30 mg/kg BID X 10 days
# influenza [5] = test: In vivo prophylaxis study (FIG. 1), survival of infected mice; parameters: species or system Balb/c mice; details: 100 mg/kg oral gavage, first dose 2 hours prior to infection, twice daily for 5 days, survival monitored 21 days, P<0.0001 vs vehicle
# [6] = Influenza A virus, PR/8, MDCK, MDCK cells infected with A/PR/8/34, survival of infected cells, class symbols, read-out: IC50 (mean all)
# [7] = Influenza A virus, PR/8, MDCK, MDCK cells infected with A/PR/8/34, replication of influenza virus (viral RNA, bDNA), class symbols, read-out: EC50 (mean all)
# [8] = Influenza A virus, PR/8, MDCK, mean all, survival of A/PR/8/34 infected MDCK cells (CPE assay), read-out: IC50
# [9] = Influenza A virus, PR/8, mean all, replication of A/PR/8/34 influenza virus (bDNA assay), read-out: EC50
# [10] = Influenza A virus, PR/8, MDCK, MDCK cells infected with A/PR/8/34, cell protection (CPE), read-out: IC50 (mean all)
# [11] = Influenza A virus, PR/8, MDCK, MDCK cells infected with A/PR/8/34, bDNA viral RNA, read-out: EC50 (mean all)
structure (smiles),measurement,setting,value
OC[C@H](O)CN1CCCC(Nc2nc(-c3c[nH]c4ncc(Cl)cc34)ncc2F)C1 (stereo partly shown) [Compound 588],pIC50,[1]; [6],> 5.30
same,pEC50,[2]; [7],> 5.30
same,survival,influenza [3],complete survival
"O=C(N[C@@H]1CCC[C@H](Nc2nc(-c3c[nH]c4ncc(F)cc34)ncc2F)C1)N1CCOCC1 [Compound 706, N-[(1R,3S)-3-[[5-fluoro-2-(5-fluoro-1H-pyrrolo[2,3-b]pyridin-3-yl)pyrimidin-4-yl]amino]cyclohexyl]morpholine-4-carboxamide]",pIC50,"[1]; Influenza A virus, PR/8, MDCK, mean all, MDCK cells infected with A/PR/8/34, cell protection (CPE), read-out: IC50",> 5.30
same,pEC50,"[2]; Influenza A virus, PR/8, MDCK, mean all, bDNA viral RNA in MDCK cells infected with A/PR/8/34, read-out: EC50",> 5.30
same,Percent Survival,influenza [4],75%
same,Percent Weight Loss (Day 8),influenza [4],27.0%
"O=C(N[C@@H]1CCC[C@H](Nc2nc(-c3c[nH]c4ncc(F)cc34)ncc2F)C1)N1CCCC1 [Compound 895, N-((1R,3S)-3-(5-fluoro-2-(5-fluoro-1H-pyrrolo[2,3-b]pyridin-3-yl)-pyrimidin-4-ylamino)cyclohexyl)pyrrolidine-1-carboxamide]",pIC50,"[1]; Influenza A virus, PR/8, MDCK, exemplary values in text, survival of A/PR/8/34 infected cells, read-out: IC50",9.10
same,pIC50,[1]; [8],> 5.30
same,pEC50,"[2]; Influenza A virus, PR/8, exemplary values in text, replication of A/PR/8/34 influenza virus, read-out: EC50",9.00
same,pEC50,[2]; [9],> 5.30
same,Percent Survival,influenza [4],100%
same,Percent Weight Loss (Day 8),influenza [4],12.8%
"COC(=O)N[C@H]1CCC[C@@H](Nc2nc(-c3c[nH]c4ncc(Cl)cc34)ncc2F)C1 (relative stereo) [Compound 514, Methyl-cis-3-[[2-(5-chloro-1H-pyrrolo[2,3-b]pyridin-3-yl)-5-fluoro-pyrimidin-4-yl]amino]cyclohexylcarbamate]",pIC50,[1]; [6],> 5.30
same,pEC50,[2]; [7],> 5.30
same,survival,influenza [5],complete survival
"C[C@H]1NC(=O)O[C@]12CCC[C@H](Nc1nc(-c3c[nH]c4ncc(F)cc34)ncc1F)C2 (single isomer, unassigned) [Compound 967]",pIC50,[1]; [8],> 5.30
same,pEC50,[2]; [9],> 5.30
same,Percent Survival,influenza [4],75%
same,Percent Weight Loss (Day 8),influenza [4],30.9%
"Cc1cccc(S(=O)(=O)N2CCC[C@H](CNc3nc(-c4c[nH]c5ncc(Cl)cc45)ncc3F)C2)c1 [Compound 66, (R)-2-(5-chloro-1H-pyrrolo[2,3-b]pyridin-3-yl)-5-fluoro-N-((1-(m-tolylsulfonyl)piperidin-3-yl)methyl)pyrimidin-4-amine]",pIC50,[1]; [10],> 5.30
same,pEC50,[2]; [11],> 5.30
CCCCS(=O)(=O)N1CCCC(Nc2ccnc(-c3c[nH]c4ncc(Cl)cc34)n2)C1 (stereo not shown) [Compound 419],pIC50,"[1]; mean all, A/PR/8/34 infected MDCK cells, CPE assay, read-out: IC50",> 5.30
same,pEC50,"[2]; mean all, A/PR/8/34 influenza virus in MDCK cells, bDNA assay, read-out: EC50",> 5.30
"CC(C)(CO)C(=O)N[C@@H]1CCC[C@H](Nc2nc(-c3c[nH]c4ncc(Cl)cc34)ncc2F)C1 [Compound 650, N-[(1R,3S)-3-[[2-(5-chloro-1H-pyrrolo[2,3-b]pyridin-3-yl)-5-fluoro-pyrimidin-4-yl]amino]cyclohexyl]-3-hydroxy-2,2-dimethyl-propanamide hydrochloride]",pIC50,"[1]; Influenza A virus, PR/8, MDCK, CPE assay, A/PR/8/34 infected MDCK cells, class symbols, read-out: IC50 (mean all)",> 5.30
same,pEC50,"[2]; Influenza A virus, PR/8, MDCK, bDNA assay, A/PR/8/34 influenza virus replication in MDCK cells, class symbols, read-out: EC50 (mean all)",> 5.30
"Cc1ccccc1C(=O)N1CCC[C@H](CNc2nc(-c3c[nH]c4ncc(Cl)cc34)ncc2F)C1 [Compound 143, (R)-(3-((2-(5-chloro-1H-pyrrolo[2,3-b]pyridin-3-yl)-5-fluoropyrimidin-4-ylamino)methyl)piperidin-1-yl)(o-tolyl)methanone]",pIC50,[1]; [10],> 5.30
same,pEC50,[2]; [11],> 5.30
